Experimental data published in ChEMBL document CHEMBL1201862, “PubChem BioAssay data set” (2004).
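Test compounds were applied to cells in 96-well plates for 48 hours at 5 doses. At the GI50, growth is halved.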 Activity calls are given as the source filed them. Cut-off read from the data, not from the text of the source: active = GI50 up to about 1.1 µM and inactive = higher.

Assays:
Assay in all cases: NCI tumour cell line growth inhibition, 48 h
[1] = test system: RXF 393
[2] = test system: NCI-H23
[3] = test system: UACC-62
[4] = test system: SK-MEL-5
[5] = test system: OVCAR-8
[6] = test system: Hs-578T
[7] = test system: SF-539
[8] = test system: ACHN
[9] = test system: HOP-62
[10] = test system: A549
[11] = test system: SK-OV-3
[12] = test system: HCT-116
[13] = test system: KM12
[14] = test system: SF-268
[15] = test system: HT-29
[16] = test system: MDA-N
[17] = test system: SN12C
[18] = test system: SK-MEL-2
[19] = test system: NCI/ADR-RES
[20] = test system: Malme-3M

Row | Structure (SMILES) | GI50 [1] | GI50 [2] | GI50 [3] | GI50 [4] | GI50 [5] | GI50 [6] | GI50 [7] | GI50 [8] | GI50 [9] | GI50 [10] | GI50 [11] | GI50 [12] | GI50 [13] | GI50 [14] | GI50 [15] | GI50 [16] | GI50 [17] | GI50 [18] | GI50 [19] | GI50 [20]
1 | CCN(CC)Cc1cc(Nc2c3ccccc3nc3c2[nH]c2ccccc23)cc(CN(CC)CC)c1O | 0.28 µM (active) | 1.11 µM (active) | 1.55 µM (inactive) | 1.6 µM (inactive) | 0.5 µM (active) | 2.15 µM (inactive) | 1.08 µM (active) | 0.634 µM (active) | 0.598 µM (active) | 0.566 µM (active) | 3.25 µM (inactive) | 0.33 µM (active) | 0.552 µM (active) | 0.813 µM (active) | 0.35 µM (active) | 0.815 µM (active) | 0.412 µM (active) | 1.62 µM (inactive) |  | 
2 | S=c1nc2[nH]c3ccc(Br)cc3c2n[nH]1 | > 100 µM (inactive) |  | 30.5 µM (inactive) | 36.4 µM (inactive) | 52.1 µM (inactive) | 28.9 µM (inactive) | > 100 µM (inactive) |  |  | 55 µM (inactive) | > 100 µM (inactive) | 70.5 µM (inactive) | 29.2 µM (inactive) | 27.9 µM (inactive) | 35 µM (inactive) | 16.7 µM (inactive) | 66.1 µM (inactive) | 25.6 µM (inactive) | 39.8 µM (inactive) | 83.8 µM (inactive)
3 | Cc1cc(N(CCC#N)S(=O)(=O)c2ccccc2)ccc1/C=N/c1ccc(C(=O)O)cc1 | 1.7 µM (inactive) | 16.1 µM (inactive) | 17.4 µM (inactive) | 13.8 µM (inactive) | 7.71 µM (inactive) | 56 µM (inactive) | 15.2 µM (inactive) |  | 31 µM (inactive) | 31.6 µM (inactive) | 34.1 µM (inactive) | 7.87 µM (inactive) | 20.4 µM (inactive) | > 41 µM (inactive) | 15.7 µM (inactive) | > 100 µM (inactive) | 6.21 µM (inactive) | 6.7 µM (inactive) |  | 4.61 µM (inactive)
4 | CCOC(=O)/C(C#N)=C/c1ccc2c(-c3c(OCC)ccc4cc(/C=C(\C#N)C(=O)OCC)ccc34)c(OCC)ccc2c1 | > 100 µM (inactive) | > 100 µM (inactive) | > 100 µM (inactive) | > 100 µM (inactive) | > 100 µM (inactive) | > 100 µM (inactive) |  | > 100 µM (inactive) | > 100 µM (inactive) | > 100 µM (inactive) | > 100 µM (inactive) | > 100 µM (inactive) | > 100 µM (inactive) | > 100 µM (inactive) | > 100 µM (inactive) | > 100 µM (inactive) | > 100 µM (inactive) | > 100 µM (inactive) | > 100 µM (inactive) | > 100 µM (inactive)
5 | NC(=O)CCC(NC(=O)c1cccc2c(=O)c3ccccc3[nH]c12)C(=O)O (centres undefined) |  | > 100 µM (inactive) | > 100 µM (inactive) | > 100 µM (inactive) | > 100 µM (inactive) | > 100 µM (inactive) |  | > 100 µM (inactive) | > 100 µM (inactive) | > 100 µM (inactive) | > 100 µM (inactive) | > 100 µM (inactive) | > 100 µM (inactive) | > 100 µM (inactive) | > 100 µM (inactive) | > 100 µM (inactive) | > 100 µM (inactive) | > 100 µM (inactive) | > 100 µM (inactive) | > 100 µM (inactive)
6 | O/N=C(\CC(O)(C(F)(F)F)C(F)(F)F)c1cccc(Cl)c1 | 15.6 µM (inactive) | 20.5 µM (inactive) | 38.9 µM (inactive) | 16.6 µM (inactive) | 37.4 µM (inactive) | 21.5 µM (inactive) | 28.6 µM (inactive) | 23.8 µM (inactive) |  | 35.9 µM (inactive) | 22.7 µM (inactive) | 37.4 µM (inactive) | 34.8 µM (inactive) |  | 69.2 µM (inactive) | 37.3 µM (inactive) |  | 22.7 µM (inactive) | 38 µM (inactive) | 33.7 µM (inactive)
7 | O=C1/C(=C\c2ccc(O)cc2)CCC/C1=C/c1ccc(Cl)c(Cl)c1 | 2.38 µM (inactive) | 3.13 µM (inactive) | 2.28 µM (inactive) | 7.11 µM (inactive) |  | 5.65 µM (inactive) |  | 3.52 µM (inactive) | 4.17 µM (inactive) | 3.78 µM (inactive) | 4.37 µM (inactive) | 1.89 µM (inactive) | 1.7 µM (inactive) | 3.35 µM (inactive) | 1.63 µM (inactive) | 2.48 µM (inactive) | 2.73 µM (inactive) | 18.6 µM (inactive) | 2.03 µM (inactive) | 5.3 µM (inactive)
8 | CCOC(=S)SSSC(=S)OCC | 47.9 µM (inactive) | 33.4 µM (inactive) | 37.9 µM (inactive) | 36.1 µM (inactive) | 13.8 µM (inactive) | > 100 µM (inactive) | 67.1 µM (inactive) | 19.1 µM (inactive) | 30.3 µM (inactive) | 33.7 µM (inactive) | > 100 µM (inactive) | 20.8 µM (inactive) | 41.4 µM (inactive) | 71.3 µM (inactive) | 54.3 µM (inactive) | 49.3 µM (inactive) | 21.6 µM (inactive) |  | 58.1 µM (inactive) | 16.3 µM (inactive)
